Laboratory results from a melting point compilation (Tetko et al.; mined from patent text by program, amines drawn as free bases though some values may be those of a salt).

Point of comparison: `COc1ccc(CC(O)C(=O)c2ccccc2)cc1` (centres undefined), melting point 100 °C. Against it:
- C=CCc1c(C(C)C)nc(C(C)C)c(CO)c1-c1ccc(F)cc1 — lower, 69 to 71 °C
- Cc1cccc(S(=O)(=O)Cc2c(C(F)(F)F)n[nH]c2O)c1 — higher, 130 to 133 °C
- O=C(CS(=O)(=O)Cc1ccccc1)CS(=O)(=O)C(c1ccc(Cl)cc1)c1ccc(Cl)cc1 — lower, 72 to 90 °C
- CN(c1ccc2ccccc2c1)S(=O)(=O)C(Cc1ccccc1)C(=O)NC(Cc1ccc(C#N)cc1)C(=O)N1CCCC1 (centres undefined) — higher, 186 °C
- CN(C)C1(c2ccccc2)CCC2(OCCc3c2[nH]c2ccccc32)C(CC#N)C1 (centres undefined) — higher, 260 to 267 °C
- CC(C)(C)C(C)(C)Nc1nc(NC(C)(C)C(C)(C)C)nc(N2CC3CCC(CC3)C2)n1 — higher, 282 to 284 °C
- C=CC(=O)OCCOc1ccc(-c2nc(-c3ccc(C)cc3C)nc(-c3ccc(C)cc3C)n2)c(O)c1 — higher, 128 to 129 °C
- Cc1c(O)cccc1C(=O)NC(Cc1ccccc1)C(O)C(=O)N1CSC(C)(C)C1C(=O)NC1CCCc2ccccc21 (centres undefined) — higher, 125 to 126 °C
- Cc1onc(-c2ccc(-c3cscn3)cc2)c1-c1ccc(S(N)(=O)=O)c(F)c1 — higher, 216 °C
- COc1cc(NC(=O)CC23CC4CC(CC(C4)C2)C3)c(C)c([N+](=O)[O-])c1 — higher, 141 to 142 °C
- Cc1ccc(C)n1C1=CC2=C(CC1)CCc1[nH]c(=O)c(=O)n(O)c12 — higher, > 250 °C
- CCOC(=O)c1cccc(C2(C(N)=O)C(=O)N(CC(=O)N(c3ccccc3)C(C)C)c3ccccc3N(c3ccccc3)C2=O)c1 (centres undefined) — higher, 187 to 188 °C
- CCn1ncc2c1ncc1c(N3CCCCC3)nc3cc(C)nn3c12 — higher, 176 to 177 °C
- COc1ccc(-n2nc(OC(C)C)cc2-c2ccc(OCCNS(C)(=O)=O)cc2)cn1 — higher, 121 to 122 °C
- COc1c(C)c2c(c(O)c1CC=C(C)CC(C)C(=O)O)C(=O)OC2 (centres undefined) — higher, 122 to 123 °C
- NC(=O)Cc1ccc2c(c1)CCc1ccccc1C2=O — higher, 174 °C
- CC(C)c1nc2c(cc1CO)COC(=O)N2c1ccc(F)cc1 — higher, 154 °C
- COc1cc2c(Nc3ccc(Sc4nccn4C)c(Cl)c3)c(C#N)cnc2cc1N1CCC(N2CCCCC2)CC1 — higher, 221 to 223 °C
- COc1ccc(S)c(-n2c(=O)[nH]cc(C(=O)O)c2=O)c1 — higher, 277 to 278 °C
- O=C(O)c1ccc(NCC2CCCCCCC2)cc1 — higher, 160 to 162 °C
- Cc1ncc([N+](=O)[O-])n1CCOS(C)(=O)=O — higher, 152 to 153 °C
- CC(C)SC1=C(Cl)CSS1=O (centres undefined) — lower, 60 °C
- O=C(NC1CCCCC1)N(CCCN1CCC(Cc2ccccc2)CC1)c1ccccc1 — higher, 106 to 108 °C
- COc1ccc(F)c(F)c1C(=O)c1cnc(NC2CCN(S(N)(=O)=O)CC2)nc1N — higher, 217 to 218 °C
- N=C1SCCN1c1ccc([N+](=O)[O-])cc1 — higher, 166 °C
- O=C(NCCO)c1cccc(-c2cccn3nc(Nc4cccc(C(F)(F)F)c4)nc23)c1 — higher, 215 to 216 °C
- CCCn1c(=O)c2c(NC)n[nH]c2n(Cc2cccs2)c1=O — higher, > 300 °C
- CC(C)(C)OC(=O)NCCN(CCC12CC3CC(CC(C3)C1)C2)C(=O)NCCCc1ccncc1 — higher, 158 to 160 °C
- COc1cc(C)nc(NC(=O)NS(=O)(=O)c2cccc3cc[nH]c23)n1 — higher, 207 to 209 °C
- COc1ccc(C(=O)c2cn3c4c(cccc24)OCC3CN2CCOCC2)cc1 (centres undefined) — higher, 209 to 214 °C
- CCOC(=O)c1ccc(N2CCC(N)CC2)nc1 — higher, 148 to 150 °C
- Cc1cccc(C(=O)NC(Nc2c(Nc3cccnc3)c(=O)c2=O)C(C)(C)Cc2ccncc2)c1 (centres undefined) — higher, 219 to 221 °C
- CCCCN(C(=O)Nc1ccc(F)cc1F)c1cnc2ccc(Cl)cc2c1-c1ccccc1Cl — lower, 63 to 66 °C
- COCCc1nc2c(N)nc3ccccc3c2n1CCOCCN(C)C(=O)C1CCCCC1 — lower, 52 to 57 °C
- Cc1nc(N)c2nc(CO)n(NCc3ccccc3)c2c1C — higher, > 250 °C
- Cc1cc(-n2c(C)ccc2C)c(C)cc1N=CN(C)C — lower, 90 to 91 °C
- COc1ccc([N+](=O)[O-])c(C#N)c1CBr — higher, 137 to 138 °C
- O=C(SCC(SC(=O)c1ccccc1)C(=O)O)c1ccccc1 (centres undefined) — higher, 116 to 118 °C
- O=[N+]([O-])C1(Cl)C=CC(S(=O)c2ccc(Br)cc2)=CC1 (centres undefined) — higher, 138 to 140 °C
- Cc1ccc(Cc2cnc(NCCCCNc3ncccc3Cl)[nH]c2=O)cn1 — higher, 180 to 182 °C
- CCCCCCCCCCCCOS(=O)(=O)NC(=O)Nc1c(C(C)C)cccc1C(C)C — higher, 112 to 115 °C
- CC(C)OCCOc1c(-c2ccc(S(N)(=O)=O)cc2)cnn(-c2ccc(F)c(F)c2)c1=O — lower, 54 to 56 °C
- O=C(NCCO)c1cccc(-c2cccc3nn(Cc4ccc(F)cc4)cc23)c1 — higher, 137 to 138 °C
- N#Cc1c(Cl)cccc1C(Br)Br — higher, 120 °C
- CN(O)C(=O)NCc1cccs1 — higher, 106 to 107 °C
- COC(=O)NC[C@H]1CN(c2ccc3c(c2)CCCc2cnoc2-3)C(=O)O1 — higher, 166 to 168 °C
- COc1cccc(-c2cc(=O)c3cccc(C(=O)Nc4ccc(CCCCN5CCc6cc(OC)c(OC)cc6C5)cc4)c3o2)c1 — higher, 152 °C
- CCNc1ccc(C(=O)OC)cc1 — higher, 132 to 135 °C
- CN1C(=O)CC[C@]2(C)c3ccc(Sc4nc5c(Br)cccc5s4)cc3CC[C@@H]12 — higher, 206 to 210 °C
- CC(C)Oc1ccc(C(=O)c2[nH]c3cc(Cl)ccc3c2CC(=O)O)cc1 — higher, 216 to 218 °C
- CC(C)N1CCC(C(C#N)(c2ccccc2)c2ccccc2)C1 (centres undefined) — lower, 73 to 74 °C
- CCOC(=O)Cc1ccc2c(c1)sc1cc(N(C)C)ccc12 — higher, 115 to 120 °C
- COC(CBr)(CCCC(=O)NN)OC — lower, 58 to 60 °C
- N#CC1=Cc2cc(Cl)ccc2OC1 — higher, 124 to 126 °C
- Cn1cc(C=CC(=O)Nc2ccc(O)cc2)c([N+](=O)[O-])n1 — higher, 290 to 293 °C
- c1nc(Cc2ccc3c(c2)COCO3)c[nH]1 — higher, 145 °C
- Cc1c(Br)c(C)c2c(C)coc2c1Cc1ccc(C(C)C)cc1 — lower, 76 to 77 °C
- COc1cc2c(cc1OC)CN(CC(=O)Nc1ccc([N+](=O)[O-])cc1)CC2 — higher, 173 to 178 °C
- CCSc1nc(=O)n(C(=O)Nc2cccc(Cl)c2)s1 — higher, 168 °C
- COC(=O)c1cc2ccsc2s1 — higher, 101 to 105 °C
- CCOc1ccc2c(c1)C(=O)CCC2 — lower, 34 to 36 °C
- Cc1onc(-c2ccc(-c3cscn3)cc2)c1-c1ccc(S(N)(=O)=O)cc1 — higher, 112 to 115 °C
- O=c1[nH][nH]c(=O)c2c(O)c3c(Br)cccc3nc12 — higher, 280 to 281 °C
- COc1c(C)c(C)c2c(c1C)C(CO)C(C)(C)O2 (centres undefined) — lower, 79 to 81 °C
- CCCCCCCc1noc(-c2ncn3c2CN(C)C(=O)c2c(Cl)cccc2-3)n1 — higher, 108 to 110 °C
- CCOC(=O)/C(=N\OC1CCS(=O)(=O)C1)c1csc(N)n1 (centres undefined) — higher, 147 to 148 °C
- CN(C)Cc1ccc(SC2CCN(C(=O)OCc3ccccc3)CC2)cc1 — higher, 144 °C
- CN(C)CC(=O)OCc1ccc2c(c1)-c1n[nH]c(=O)c3cccc(c13)O2 — higher, 227 to 230 °C
- CC(=O)Oc1c2ccc(C(F)(F)F)cc2c(OC(C)=O)c2cc3ccccc3cc12 — higher, 285 to 288 °C
- Cc1cc(CO)c2cccc(OCc3ccccc3)c2n1 — higher, 137 to 141 °C
- O=Cc1cc(OCCCNC(=O)NC2CCCCC2)ccc1[N+](=O)[O-] — higher, 150 to 152 °C
- O=C(C=Cc1ccc(O)cc1)N(CCO)CCO — higher, 148 to 150 °C
- COc1ccccc1-c1ccc2cnc(Nc3ccc4c(c3)NC(=O)CC4)nn12 — higher, 310 to 313 °C
- O=C1c2ccccc2C(=O)N1CC(=O)N1c2ccccc2N(Cc2ccccc2)C(=O)CC1c1ccccc1 (centres undefined) — higher, 127 to 128 °C
- COc1cccc2c1SCC(C(=O)O)C2 (centres undefined) — higher, 138 to 144 °C
- CCC1OC(=O)N(CCc2ccc(NC(=O)c3cccs3)cc2)N=C1c1ccc(OC)c(OC)c1 (centres undefined) — higher, 197 °C
- CC1(C)c2ccc(CCN3CCN(c4noc5ccccc45)CC3)cc2C(C)(C)C1NS(C)(=O)=O (centres undefined) — lower, 75 to 80 °C
- Cc1cc(F)ccc1-c1ccc(S(=O)(=O)N2c3ccccc3CC2C(=O)NCCOc2ccc(C(=O)O)cc2)cc1 (centres undefined) — lower, 96 °C
- O=Cc1c(Cl)c(Br)c(Br)c(Br)c1Br — higher, 268 to 269 °C
- O=C(O)CSCCCCCCn1nc(-c2ccccc2)c(-c2ccccc2)c1-c1ccccc1 — lower, 92 to 97 °C
- O=C(Nc1ccc(F)cc1)NC1CCN(C(=O)c2ccc(C(=O)O)cc2)CC1 — higher, 195 to 198 °C
- NC(=O)CCc1cnoc1-c1ccccc1 — higher, 151 to 152 °C
- Cc1cccc(Br)c1-c1c(C)cccc1Br — lower, 90 to 92.3 °C
- Fc1cc(CC2(Cc3ccnc(F)c3)c3cc(I)ccc3-c3ncccc32)ccn1 — higher, 158 to 161 °C
- Cc1c(NC(=O)c2ccc(-c3ccc(Cl)s3)cc2)ccc2cc(CN3CCCCCC3)cnc12 — higher, 186 to 187 °C
- Nc1ncnc2c1ccn2C1C=CC(CO)C1 (centres undefined) — higher, 165 to 168 °C
- CN(Cc1cc2c3c(c1)c(=O)c(C(=O)NCc1ccc(Cl)cc1)cn3CC(=O)N2C)C[C@@H](O)c1ccsc1 — higher, 137 to 139 °C
- Cn1c(C(=O)N[C@H]2CCCC[C@H]2C(=O)N[C@H](C#N)CO)cc2ccccc21 — lower, 78.4 to 79 °C
- CS(=O)(=O)c1ccc(C(CC2CCCC2)C(=O)O)cc1S(C)(=O)=O (centres undefined) — lower, 64 to 68 °C
- NC(=O)c1ccc(-c2ccc3nnn(Cc4cc5cccnc5cc4F)c3n2)cc1Cl — higher, 202 to 204 °C
- CSc1nc(=O)n(C2CCCCC2)c(=O)n1C — higher, 137 to 139 °C
- CC(C)(C)OC(=O)NC1CCCCc2cc(OCC3CCCCC3)c(C(N)=O)cc21 (centres undefined) — higher, 193 to 194 °C
- COc1ccc(/C=C(/C#N)c2cc(OC)c(OC)c(OC)c2)cc1N — higher, 144 to 145 °C
- CCN(CC)CCNC(=O)c1ccc(N(S(C)(=O)=O)S(C)(=O)=O)cc1OC — higher, 144 °C
- COc1ccc(CCNc2c(-c3ccc(S(C)(=O)=O)cc3)cnn(CC(F)(F)F)c2=O)cc1OC — higher, 163 to 165 °C
- COC(=O)[C@@H](C)NC(=O)CBr — lower, 51 to 52 °C
- CCCCCc1nc2cc(Cl)c(S(N)(=O)=O)cc2[nH]1 — higher, 183 to 185 °C
- Clc1ncccc1-c1ccccc1 — lower, 48 °C
